Laboratory results reported in ChEMBL document CHEMBL1145687, “Cochliobolic acid, a novel metabolite produced by Cochliobolus lunatus, inhibits binding of TGF-alpha to the EGF receptor in a SPA assay” (J Nat Prod, 1997).

Target: Epidermal growth factor receptor (Homo sapiens, UniProt P00533)
Test: Displacement of [125I]-TGFalpha from human EGFR in human A431 cell membrane by SPA
Format: cell membranes, A-431

Chain of Epidermal growth factor receptor (P00533 whole entry): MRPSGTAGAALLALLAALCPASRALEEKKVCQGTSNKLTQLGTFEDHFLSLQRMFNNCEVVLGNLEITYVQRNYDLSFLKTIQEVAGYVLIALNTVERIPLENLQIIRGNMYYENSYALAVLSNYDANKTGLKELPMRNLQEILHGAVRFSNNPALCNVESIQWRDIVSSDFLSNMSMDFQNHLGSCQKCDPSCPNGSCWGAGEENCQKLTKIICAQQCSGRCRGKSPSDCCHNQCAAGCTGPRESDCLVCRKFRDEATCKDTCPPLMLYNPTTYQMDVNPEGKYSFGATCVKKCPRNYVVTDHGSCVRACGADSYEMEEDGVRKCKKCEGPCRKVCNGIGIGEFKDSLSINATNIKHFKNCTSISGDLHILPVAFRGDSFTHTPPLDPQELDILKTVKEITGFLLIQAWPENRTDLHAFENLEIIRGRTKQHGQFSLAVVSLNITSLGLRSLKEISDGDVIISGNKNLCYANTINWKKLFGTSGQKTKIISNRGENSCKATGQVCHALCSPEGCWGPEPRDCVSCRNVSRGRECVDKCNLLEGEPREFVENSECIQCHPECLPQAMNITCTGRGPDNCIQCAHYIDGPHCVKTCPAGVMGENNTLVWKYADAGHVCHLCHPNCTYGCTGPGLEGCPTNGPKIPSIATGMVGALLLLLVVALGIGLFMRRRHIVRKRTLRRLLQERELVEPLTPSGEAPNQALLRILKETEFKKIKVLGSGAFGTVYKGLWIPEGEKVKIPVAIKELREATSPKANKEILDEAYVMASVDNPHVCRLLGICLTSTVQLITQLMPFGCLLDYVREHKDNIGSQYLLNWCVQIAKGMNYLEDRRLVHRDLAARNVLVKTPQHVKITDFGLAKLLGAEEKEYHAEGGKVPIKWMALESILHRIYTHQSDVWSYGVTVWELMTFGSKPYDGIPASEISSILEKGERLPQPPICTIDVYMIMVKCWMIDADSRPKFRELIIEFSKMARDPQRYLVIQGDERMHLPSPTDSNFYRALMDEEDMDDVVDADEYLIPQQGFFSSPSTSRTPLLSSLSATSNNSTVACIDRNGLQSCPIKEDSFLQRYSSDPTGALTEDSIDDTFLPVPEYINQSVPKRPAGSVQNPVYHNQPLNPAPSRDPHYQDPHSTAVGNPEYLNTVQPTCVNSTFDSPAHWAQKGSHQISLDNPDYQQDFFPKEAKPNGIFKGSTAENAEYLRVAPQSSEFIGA

- IC50: 1.6 µM
Structure (SMILES): CCC(C)/C=C/C(=O)C(=O)/C=C/C=C/C=C/C=C/C=C/C=C/[C@@H]1C[C@@H](O)[C@H](C(=O)O)O1 (stereo partly specified) [COCHLIOBOLIC ACID]
